Data: the kinase profiling compilation of Christmann-Franck et al. (2016)

Key:
Assay in all cases: KINOMEscan competition binding
Details in all cases: compound 10.0 µM
ADCK4 (human) = ADCK4 (human) (UniProt Q96D53)
AKT1 (human) = AKT1 (human) (UniProt P31749)
AKT3 (human) = AKT3 (human) (UniProt Q9Y243)
BMP2K (human) = BMP2K (human) (UniProt Q9NSY1)
CAMK2A (human) = CAMK2A (human) (UniProt Q9UQM7)
CAMK4 (human) = CAMK4 (human) (UniProt Q16566)
CDC42BPB (human) = CDC42BPB (human) (UniProt Q9Y5S2)
CDK8 (human) = CDK8 (human) (UniProt P49336)
CIT (human) = CIT (human) (UniProt O14578)
CSNK1E (human) = CSNK1E (human) (UniProt P49674)
ERBB4 (human) = ERBB4 (human) (UniProt Q15303)
FLT4 (human) = FLT4 (human) (UniProt P35916)
GRK7 (human) = GRK7 (human) (UniProt Q8WTQ7)
ICK (human) = ICK (human) (UniProt Q9UPZ9)
[1] = target: JAK3 JH1 catalytic (human) (UniProt P52333)
[2] = test system: KIT (human), P10721 [L576P]
LYN (human) = LYN (human) (UniProt P07948)
MAP2K3 (human) = MAP2K3 (human) (UniProt P46734)
MAP3K11 (human) = MAP3K11 (human) (UniProt Q16584)
MYLK3 (human) = MYLK3 (human) (UniProt Q32MK0)
MYLK4 (human) = MYLK4 (human) (UniProt Q86YV6)
NLK (human) = NLK (human) (UniProt Q9UBE8)
NTRK3 (human) = NTRK3 (human) (UniProt Q16288)
PAK3 (human) = PAK3 (human) (UniProt O75914)
PAK6 (human) = PAK6 (human) (UniProt Q9NQU5)
PHKG2 (human) = PHKG2 (human) (UniProt P15735)
PIK3C2B (human) = PIK3C2B (human) (UniProt O00750)
PLK1 (human) = PLK1 (human) (UniProt P53350)
RET (human) = RET (human) (UniProt P07949)
RIOK3 (human) = RIOK3 (human) (UniProt O14730)
ROCK2 (human) = ROCK2 (human) (UniProt O75116)
RPS6KA4 KD2 (human) = RPS6KA4 KD2 (human) (UniProt O75676)
SIK3 (human) = SIK3 (human) (UniProt Q9Y2K2)
STK17A (human) = STK17A (human) (UniProt Q9UEE5)
STK25 (human) = STK25 (human) (UniProt O00506)
STK4 (human) = STK4 (human) (UniProt Q13043)
TBK1 (human) = TBK1 (human) (UniProt Q9UHD2)
TEC (human) = TEC (human) (UniProt P42680)
TLK2 (human) = TLK2 (human) (UniProt Q86UE8)
[3] = target: TYK2 JH2 pseudokinase (human) (UniProt P29597)
WEE1 (human) = WEE1 (human) (UniProt P30291)
CAMK2B (human) = CAMK2B (human) (UniProt Q13554)

Sequence of CDC42BPB (human) (Q9Y5S2 whole entry, looked up): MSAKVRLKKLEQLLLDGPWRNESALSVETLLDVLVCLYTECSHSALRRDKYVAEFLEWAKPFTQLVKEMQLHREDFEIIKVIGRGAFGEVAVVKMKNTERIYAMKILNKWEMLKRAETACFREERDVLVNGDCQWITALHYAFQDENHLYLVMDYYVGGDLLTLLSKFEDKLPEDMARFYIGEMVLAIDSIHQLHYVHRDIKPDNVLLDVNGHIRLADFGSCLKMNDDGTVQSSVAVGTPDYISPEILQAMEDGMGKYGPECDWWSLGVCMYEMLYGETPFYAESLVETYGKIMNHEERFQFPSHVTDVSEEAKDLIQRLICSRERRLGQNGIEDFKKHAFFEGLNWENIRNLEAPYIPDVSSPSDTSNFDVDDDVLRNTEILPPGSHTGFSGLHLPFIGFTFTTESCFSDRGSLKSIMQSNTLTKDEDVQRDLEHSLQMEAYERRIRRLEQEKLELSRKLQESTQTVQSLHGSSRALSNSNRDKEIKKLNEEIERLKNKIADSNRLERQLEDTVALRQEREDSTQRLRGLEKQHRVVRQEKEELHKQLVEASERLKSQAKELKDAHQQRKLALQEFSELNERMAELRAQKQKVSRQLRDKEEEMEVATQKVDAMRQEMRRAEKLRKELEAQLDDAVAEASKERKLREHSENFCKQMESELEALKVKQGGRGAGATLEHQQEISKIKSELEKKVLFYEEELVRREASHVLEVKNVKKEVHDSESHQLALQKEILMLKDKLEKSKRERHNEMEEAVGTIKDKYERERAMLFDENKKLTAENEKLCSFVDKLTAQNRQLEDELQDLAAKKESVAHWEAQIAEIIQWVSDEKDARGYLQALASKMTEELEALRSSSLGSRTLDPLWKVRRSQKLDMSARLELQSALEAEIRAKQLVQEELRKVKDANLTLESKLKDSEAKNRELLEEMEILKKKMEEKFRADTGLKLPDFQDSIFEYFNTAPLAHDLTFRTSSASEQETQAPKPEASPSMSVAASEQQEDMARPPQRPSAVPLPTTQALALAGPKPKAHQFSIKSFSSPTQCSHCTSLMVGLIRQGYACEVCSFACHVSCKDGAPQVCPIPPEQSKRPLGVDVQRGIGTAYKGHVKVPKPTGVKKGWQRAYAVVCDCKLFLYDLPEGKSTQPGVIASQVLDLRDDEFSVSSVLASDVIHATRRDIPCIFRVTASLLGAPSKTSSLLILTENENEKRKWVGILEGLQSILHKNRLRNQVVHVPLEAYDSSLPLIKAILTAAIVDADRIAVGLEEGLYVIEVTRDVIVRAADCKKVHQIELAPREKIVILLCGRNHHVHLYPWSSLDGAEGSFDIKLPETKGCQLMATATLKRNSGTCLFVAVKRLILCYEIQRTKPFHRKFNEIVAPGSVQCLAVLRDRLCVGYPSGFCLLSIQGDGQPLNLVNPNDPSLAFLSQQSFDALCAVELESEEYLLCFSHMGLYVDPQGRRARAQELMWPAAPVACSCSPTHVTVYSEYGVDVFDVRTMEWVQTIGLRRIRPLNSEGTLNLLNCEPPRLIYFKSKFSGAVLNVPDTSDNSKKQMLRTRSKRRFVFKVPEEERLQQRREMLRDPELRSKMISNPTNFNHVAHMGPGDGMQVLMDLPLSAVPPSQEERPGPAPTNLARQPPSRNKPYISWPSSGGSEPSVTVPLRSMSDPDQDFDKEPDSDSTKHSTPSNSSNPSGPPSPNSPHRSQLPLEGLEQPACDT
Sequence of STK25 (human) (O00506 whole entry, looked up): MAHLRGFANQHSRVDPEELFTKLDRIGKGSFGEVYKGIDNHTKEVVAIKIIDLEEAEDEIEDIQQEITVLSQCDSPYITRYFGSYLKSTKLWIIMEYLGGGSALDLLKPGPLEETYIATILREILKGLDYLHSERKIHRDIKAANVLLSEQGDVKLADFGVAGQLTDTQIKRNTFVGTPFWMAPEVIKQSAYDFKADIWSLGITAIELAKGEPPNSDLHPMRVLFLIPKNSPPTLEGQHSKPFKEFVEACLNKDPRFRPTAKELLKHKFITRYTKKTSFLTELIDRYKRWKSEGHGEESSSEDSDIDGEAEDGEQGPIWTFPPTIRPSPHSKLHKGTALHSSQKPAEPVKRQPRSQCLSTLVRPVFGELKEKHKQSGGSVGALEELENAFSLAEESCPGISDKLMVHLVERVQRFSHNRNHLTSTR
Sequence of AKT1 (human) (P31749 whole entry, looked up): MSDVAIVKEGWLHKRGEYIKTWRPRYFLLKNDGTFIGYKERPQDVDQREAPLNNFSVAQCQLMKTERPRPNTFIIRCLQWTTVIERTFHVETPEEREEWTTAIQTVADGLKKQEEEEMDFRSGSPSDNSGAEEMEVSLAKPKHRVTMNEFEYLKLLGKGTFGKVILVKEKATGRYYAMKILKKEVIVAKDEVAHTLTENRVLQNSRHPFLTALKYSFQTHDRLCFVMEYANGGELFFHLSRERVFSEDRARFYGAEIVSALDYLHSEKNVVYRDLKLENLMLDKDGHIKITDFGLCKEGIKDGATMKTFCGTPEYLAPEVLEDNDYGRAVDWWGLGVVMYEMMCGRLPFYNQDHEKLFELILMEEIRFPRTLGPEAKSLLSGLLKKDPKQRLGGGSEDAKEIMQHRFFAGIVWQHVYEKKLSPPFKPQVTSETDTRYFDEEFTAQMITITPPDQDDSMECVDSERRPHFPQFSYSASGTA
Sequence of TLK2 (human) (Q86UE8 whole entry, looked up): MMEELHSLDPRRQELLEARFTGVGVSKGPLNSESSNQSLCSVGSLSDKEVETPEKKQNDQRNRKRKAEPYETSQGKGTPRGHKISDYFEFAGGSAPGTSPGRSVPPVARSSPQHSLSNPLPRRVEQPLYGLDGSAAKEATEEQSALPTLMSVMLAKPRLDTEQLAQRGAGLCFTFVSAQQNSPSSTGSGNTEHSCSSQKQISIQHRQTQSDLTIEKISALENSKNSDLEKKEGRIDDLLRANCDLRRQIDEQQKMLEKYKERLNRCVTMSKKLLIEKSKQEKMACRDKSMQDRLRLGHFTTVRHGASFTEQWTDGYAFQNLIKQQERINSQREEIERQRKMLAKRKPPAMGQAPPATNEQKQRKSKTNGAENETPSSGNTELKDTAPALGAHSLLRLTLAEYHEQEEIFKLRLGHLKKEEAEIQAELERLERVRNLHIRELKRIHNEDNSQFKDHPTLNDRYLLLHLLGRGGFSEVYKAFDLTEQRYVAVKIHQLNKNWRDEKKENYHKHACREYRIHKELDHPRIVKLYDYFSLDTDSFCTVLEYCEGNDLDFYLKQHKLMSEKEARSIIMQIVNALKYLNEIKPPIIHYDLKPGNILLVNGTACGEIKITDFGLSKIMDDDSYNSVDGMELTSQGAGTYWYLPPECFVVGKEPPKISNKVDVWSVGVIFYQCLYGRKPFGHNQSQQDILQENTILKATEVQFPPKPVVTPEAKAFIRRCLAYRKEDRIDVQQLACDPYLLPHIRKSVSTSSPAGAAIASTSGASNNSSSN
Sequence of BMP2K (human) (Q9NSY1 whole entry, looked up): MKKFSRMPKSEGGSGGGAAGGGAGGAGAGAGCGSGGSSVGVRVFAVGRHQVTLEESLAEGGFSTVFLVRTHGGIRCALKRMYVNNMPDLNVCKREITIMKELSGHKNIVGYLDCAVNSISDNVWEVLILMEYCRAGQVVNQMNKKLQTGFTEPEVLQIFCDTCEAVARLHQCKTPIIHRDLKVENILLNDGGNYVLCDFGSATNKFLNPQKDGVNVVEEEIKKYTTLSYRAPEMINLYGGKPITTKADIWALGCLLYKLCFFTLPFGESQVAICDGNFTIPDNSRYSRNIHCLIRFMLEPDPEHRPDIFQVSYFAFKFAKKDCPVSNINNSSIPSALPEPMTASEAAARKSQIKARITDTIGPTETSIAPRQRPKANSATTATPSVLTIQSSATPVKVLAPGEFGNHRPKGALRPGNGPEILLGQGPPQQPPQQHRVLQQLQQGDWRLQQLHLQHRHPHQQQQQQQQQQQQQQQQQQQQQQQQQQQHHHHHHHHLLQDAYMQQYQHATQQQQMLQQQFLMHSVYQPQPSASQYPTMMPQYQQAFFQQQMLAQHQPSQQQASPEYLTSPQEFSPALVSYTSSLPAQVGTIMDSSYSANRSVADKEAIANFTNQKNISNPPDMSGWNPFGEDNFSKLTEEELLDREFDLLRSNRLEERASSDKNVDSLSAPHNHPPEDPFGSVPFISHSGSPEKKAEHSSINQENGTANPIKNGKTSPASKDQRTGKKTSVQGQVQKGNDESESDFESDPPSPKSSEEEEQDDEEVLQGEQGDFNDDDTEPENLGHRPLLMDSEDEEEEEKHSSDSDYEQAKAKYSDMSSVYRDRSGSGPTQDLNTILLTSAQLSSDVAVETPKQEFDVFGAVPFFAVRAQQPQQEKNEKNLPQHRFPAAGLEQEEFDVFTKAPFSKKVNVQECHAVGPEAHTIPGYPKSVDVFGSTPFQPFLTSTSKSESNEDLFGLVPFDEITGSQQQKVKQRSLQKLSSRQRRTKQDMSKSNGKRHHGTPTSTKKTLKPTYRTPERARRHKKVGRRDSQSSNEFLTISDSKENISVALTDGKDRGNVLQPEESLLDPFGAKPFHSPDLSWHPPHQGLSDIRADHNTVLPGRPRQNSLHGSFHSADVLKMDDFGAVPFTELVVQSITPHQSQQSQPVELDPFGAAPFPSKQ
Sequence of MAP2K3 (human) (P46734 whole entry, looked up): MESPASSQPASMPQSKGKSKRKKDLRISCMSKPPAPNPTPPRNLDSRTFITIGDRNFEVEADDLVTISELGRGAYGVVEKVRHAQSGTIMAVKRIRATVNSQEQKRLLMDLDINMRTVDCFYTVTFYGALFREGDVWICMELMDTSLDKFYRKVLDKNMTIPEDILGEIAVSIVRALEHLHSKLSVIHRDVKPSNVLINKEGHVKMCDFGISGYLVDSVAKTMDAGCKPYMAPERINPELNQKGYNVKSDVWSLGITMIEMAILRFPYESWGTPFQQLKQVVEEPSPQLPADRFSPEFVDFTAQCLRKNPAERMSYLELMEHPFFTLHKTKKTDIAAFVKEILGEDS

For `Cc1cnc(-c2cnc(NCCNc3ccc(C#N)cn3)nc2-c2ccc(Cl)cc2Cl)[nH]1`, which kinase still bound, per cent of control (ADCK4 (human)) is on record?
The kinase still bound, per cent of control was 100%.

What about the kinase still bound, per cent of control (AKT1 (human)) of the same compound?
Its kinase still bound, per cent of control is 100%.

What about the kinase still bound, per cent of control (AKT3 (human)) of the same compound?
Its kinase still bound, per cent of control is 100%.

What about the kinase still bound, per cent of control (BMP2K (human)) of the same compound?
Its kinase still bound, per cent of control is 99%.

What about the kinase still bound, per cent of control (CAMK2A (human)) of the same compound?
Its kinase still bound, per cent of control is 89%.

What about the kinase still bound, per cent of control (CAMK4 (human)) of the same compound?
Its kinase still bound, per cent of control is 100%.

And the kinase still bound, per cent of control (CDC42BPB (human))?
The kinase still bound, per cent of control was 100%.

What about the kinase still bound, per cent of control (CDK8 (human)) of the same compound?
Its kinase still bound, per cent of control is 100%.

And the kinase still bound, per cent of control (CIT (human))?
Its kinase still bound, per cent of control is 100%.

What about the kinase still bound, per cent of control (CSNK1E (human)) of the same compound?
Its kinase still bound, per cent of control is 76%.

What about the kinase still bound, per cent of control (ERBB4 (human)) of the same compound?
Its kinase still bound, per cent of control is 100%.

And the kinase still bound, per cent of control (FLT4 (human))?
The kinase still bound, per cent of control was 100%.

What about the kinase still bound, per cent of control (GRK7 (human)) of the same compound?
The kinase still bound, per cent of control was 91%.

What about the kinase still bound, per cent of control (ICK (human)) of the same compound?
The kinase still bound, per cent of control was 39%.

And the kinase still bound, per cent of control [1]?
Its kinase still bound, per cent of control is 100%.

And the kinase still bound, per cent of control [2]?
Its kinase still bound, per cent of control is 92%.

What about the kinase still bound, per cent of control (LYN (human)) of the same compound?
The kinase still bound, per cent of control was 100%.

And the kinase still bound, per cent of control (MAP2K3 (human))?
The kinase still bound, per cent of control was 87%.

What about the kinase still bound, per cent of control (MAP3K11 (human)) of the same compound?
Its kinase still bound, per cent of control is 54%.

And the kinase still bound, per cent of control (MYLK3 (human))?
Its kinase still bound, per cent of control is 78%.

And the kinase still bound, per cent of control (MYLK4 (human))?
The kinase still bound, per cent of control was 98%.

And the kinase still bound, per cent of control (NLK (human))?
Its kinase still bound, per cent of control is 86%.

What about the kinase still bound, per cent of control (NTRK3 (human)) of the same compound?
The kinase still bound, per cent of control was 100%.

What about the kinase still bound, per cent of control (PAK3 (human)) of the same compound?
The kinase still bound, per cent of control was 90%.

What about the kinase still bound, per cent of control (PAK6 (human)) of the same compound?
The kinase still bound, per cent of control was 100%.

And the kinase still bound, per cent of control (PHKG2 (human))?
The kinase still bound, per cent of control was 100%.

What about the kinase still bound, per cent of control (PIK3C2B (human)) of the same compound?
The kinase still bound, per cent of control was 91%.

What about the kinase still bound, per cent of control (PLK1 (human)) of the same compound?
The kinase still bound, per cent of control was 5.4%.

What about the kinase still bound, per cent of control (RET (human)) of the same compound?
Its kinase still bound, per cent of control is 100%.

What about the kinase still bound, per cent of control (RIOK3 (human)) of the same compound?
The kinase still bound, per cent of control was 100%.

What about the kinase still bound, per cent of control (ROCK2 (human)) of the same compound?
The kinase still bound, per cent of control was 100%.

And the kinase still bound, per cent of control (RPS6KA4 KD2 (human))?
Its kinase still bound, per cent of control is 80%.

And the kinase still bound, per cent of control (SIK3 (human))?
Its kinase still bound, per cent of control is 84%.

And the kinase still bound, per cent of control (STK17A (human))?
The kinase still bound, per cent of control was 85%.

What about the kinase still bound, per cent of control (STK25 (human)) of the same compound?
Its kinase still bound, per cent of control is 90%.

What about the kinase still bound, per cent of control (STK4 (human)) of the same compound?
The kinase still bound, per cent of control was 100%.

What about the kinase still bound, per cent of control (TBK1 (human)) of the same compound?
Its kinase still bound, per cent of control is 96%.

And the kinase still bound, per cent of control (TEC (human))?
Its kinase still bound, per cent of control is 100%.

What about the kinase still bound, per cent of control (TLK2 (human)) of the same compound?
The kinase still bound, per cent of control was 80%.

And the kinase still bound, per cent of control [3]?
The kinase still bound, per cent of control was 68%.

And the kinase still bound, per cent of control (WEE1 (human))?
The kinase still bound, per cent of control was 98%.

What does the source list for `Cn1cc(C2=C(c3ccc(Cl)cc3Cl)C(=O)NC2=O)c2ccccc21`?
kinase still bound, per cent of control (ADCK4 (human)): 100%; kinase still bound, per cent of control (AKT1 (human)): 100%; kinase still bound, per cent of control (AKT3 (human)): 100%; kinase still bound, per cent of control (BMP2K (human)): 58%; kinase still bound, per cent of control (CAMK2A (human)): 36%; kinase still bound, per cent of control (CAMK2B (human)): 55%; kinase still bound, per cent of control (CAMK4 (human)): 98%; kinase still bound, per cent of control (CDC42BPB (human)): 97%; kinase still bound, per cent of control (CDK8 (human)): 100%; kinase still bound, per cent of control (CIT (human)): 85%; kinase still bound, per cent of control (CSNK1E (human)): 49%; kinase still bound, per cent of control (ERBB4 (human)): 100%; kinase still bound, per cent of control (FLT4 (human)): 97%; kinase still bound, per cent of control (GRK7 (human)): 51%; kinase still bound, per cent of control (ICK (human)): 12%; kinase still bound, per cent of control [1]: 98%; kinase still bound, per cent of control [2]: 72%; kinase still bound, per cent of control (LYN (human)): 100%; kinase still bound, per cent of control (MAP2K3 (human)): 86%; kinase still bound, per cent of control (MAP3K11 (human)): 100%; kinase still bound, per cent of control (MYLK3 (human)): 90%; kinase still bound, per cent of control (MYLK4 (human)): 38%; kinase still bound, per cent of control (NLK (human)): 92%; kinase still bound, per cent of control (NTRK3 (human)): 62%; kinase still bound, per cent of control (PAK3 (human)): 86%; kinase still bound, per cent of control (PAK6 (human)): 86%; kinase still bound, per cent of control (PHKG2 (human)): 80%; kinase still bound, per cent of control (PIK3C2B (human)): 100%; kinase still bound, per cent of control (PLK1 (human)): 85%; kinase still bound, per cent of control (RET (human)): 100%; kinase still bound, per cent of control (RIOK3 (human)): 65%; kinase still bound, per cent of control (ROCK2 (human)): 100%; kinase still bound, per cent of control (RPS6KA4 KD2 (human)): 96%; kinase still bound, per cent of control (SIK3 (human)): 86%; kinase still bound, per cent of control (STK17A (human)): 16%; kinase still bound, per cent of control (STK25 (human)): 76%; kinase still bound, per cent of control (STK4 (human)): 62%; kinase still bound, per cent of control (TBK1 (human)): 90%; kinase still bound, per cent of control (TEC (human)): 84%; kinase still bound, per cent of control (TLK2 (human)): 62%; kinase still bound, per cent of control [3]: 32%; kinase still bound, per cent of control (WEE1 (human)): 80%
